This is an account of results in patent US20060134063A1, “Agents for proliferating pancreatic beta-cells of the islets of langerhans, agents for suppressing apoptosis of said cells, and screening of candidate compounds for these agents” (priority 2000, published 2006).

Assay [1] has as its target T1, poly(ADP-ribose) synthetase/polymerase (PARP) (Rattus norvegicus, UniProt P27008).
T1 construct: Nuclear extracts from RINm5F cells were prepared as described; endogenous in cells; host or cells: RINm5F (rat insulinoma) nuclear extract
The assay can be described thus: GMSA binding reaction of RINm5F nuclear extracts, effects of ADP-ribosylation. Format: biochemical. The settings on record: 1 mM β-NAD+ in the GMSA binding reaction; read-out: concentrations of half maximal inhibition (quenching of the effect of β-NAD+ on the GMSA band). Here is the method: The nuclear extract (10 μg) was incubated in a final volume of 20 μl of buffer containing 20 mM Tris-HCl (pH 7.9), 2 mM MgCl2, 50 mM NaCl, 2 mM EDTA, 10% glycerol, 0.1% Nonidet P-40, 1 mM DTT, 50 μg/ml bovine serum albumin and 1 μg of poly(dI-dC). After incubation for 10 min at room temperature, 2.5 pmol of double-stranded DNA, previously labeled by an exchange reaction using MEGALABEL (Takara Shuzo) and [γ-^32P]ATP (Amersham Pharmacia Biotech), were added and incubated for 30 min at room temperature, then the binding reactions were resolved on pre-run 6% acrylamide gel. […] After electrophoresis, DNA/proteins were electrophoretically transferred to a PolyScreen™ PVDF membrane (NEN).
Poly(ADP-ribosyl)ation of nuclear proteins was performed in the same condition as GMSA in the presence of 62 nM [adenylate-^32P]NAD^+ (2×10^6 cpm, NEN). The ADP-ribosylated proteins were precipitated by the addition of 9 volume of acetone, separated by SDS-PAGE (12.5%) and autoradiographed.

Another assay deals with HGF gene. The assay can be described thus: RT-PCR of HGF gene expression in RINm5F cells. Format: cell-based, rat. The note with it: 10 mM nicotinamide; 24 h. Here is the method:
Rat insulinoma RINm5F cells were seeded at 1.5×10^5 cells/ml in a 25-cm^2 culture bottle. […] After a further 24-h incubation, total RNA was prepared using cesium trifluoroacetate as described in […]. et al. (1993) J. Biol. Chem. 268, 26052-26054 and Akiyama, T. et al. (2001) Proc. Natl. Acad. Sci. USA 98, 48-53. RT-PCR was performed using this RNA as a template and primers corresponding to nucleotides 1,556-1,575 and 2,208-2,227 of rat HGF mRNA (Okajima, A. et al. (1990) Eur. J. Biochem. 193, 375-381) as described in Sun, W. et al. (1999) Brain Res. 851, 46-53, to detect the expression of HGF gene. PCR was carried out by a two-step protocol as described in Sun, W. et al. (1999) Brain Res. 851, 46-53, with 33 cycles of the first step [denaturation (95° C., 40 s), primer annealing (60° C., 40 s), and primer elongation (72° C., 1 min)] followed by the 5 cycles of the second step [denaturation ([…], 40 s), primer annealing (60° C., 40 s), and primer elongation (72° C., 1 min)].

Assay [2] concerns 5' upstream region of rat HGF gene. The assay can be described thus: HGF promoter/luciferase reporter assay in RINm5F cells. Format: cell-based. The note with it: -1336 to +85 construct; 10 mM nicotinamide; 24 h. Here is the method: The 5′ upstream region (−1336 to +85) of rat HGF gene was inserted into the multicloning site of pGL3-Basic (Promega) to prepare a luciferase reporter gene construct. Rat insulinoma RINm5F cells were seeded at 1×10^5 cells/well in a 24-well plate, incubated for 2 days, then, transfected with the test luciferase reporter construct using DMRIE-C™ (Life Technologies, Inc.) as described in Akiyama, T. et al. (2001) Proc. Natl. Acad. Sci. USA 98, 48-53. […] Then, the cells were harvested in 1 ml of ice-cold phosphate-buffered saline (PBS), washed twice with PBS, and cell extracts were prepared in extraction buffer (0.1 M potassium phosphate, pH 6.8, 1 mM DTT). The protein concentration was determined using a Coomassie reagent kit (Pierce) and bovine serum albumin as a standard. Luciferase activity was determined using a chemiluminescence substrate and a Pica Gene™ Luminescence Kit (Toyo Ink Mfg. Co, Ltd., Tokyo, Japan). β-Galactosidase activity was measured using an Aurora™ GAL-XE (ICN).
Various lengths of 5′ upstream regions HGF gene (Okajima, A., Miyazawa, K. and Kitamura, N. (1993) Eur. J. Biochem. 213, 113-119 (GenBank Ac. No. D14341)) were inserted into the multicloning site of pGL3-Basic (Promega) to prepare luciferase reporter gene constructs (FIG. 10). […] The protein concentration was determined using a Coomassie reagent kit (Pierce) and bovine serum albumin as a standard. […]

The subject of a further assay is 90% depancreatized rats. The note with it: PARP inhibitor-treated rats; cited from earlier work.

T1 sequence (P27008 whole entry): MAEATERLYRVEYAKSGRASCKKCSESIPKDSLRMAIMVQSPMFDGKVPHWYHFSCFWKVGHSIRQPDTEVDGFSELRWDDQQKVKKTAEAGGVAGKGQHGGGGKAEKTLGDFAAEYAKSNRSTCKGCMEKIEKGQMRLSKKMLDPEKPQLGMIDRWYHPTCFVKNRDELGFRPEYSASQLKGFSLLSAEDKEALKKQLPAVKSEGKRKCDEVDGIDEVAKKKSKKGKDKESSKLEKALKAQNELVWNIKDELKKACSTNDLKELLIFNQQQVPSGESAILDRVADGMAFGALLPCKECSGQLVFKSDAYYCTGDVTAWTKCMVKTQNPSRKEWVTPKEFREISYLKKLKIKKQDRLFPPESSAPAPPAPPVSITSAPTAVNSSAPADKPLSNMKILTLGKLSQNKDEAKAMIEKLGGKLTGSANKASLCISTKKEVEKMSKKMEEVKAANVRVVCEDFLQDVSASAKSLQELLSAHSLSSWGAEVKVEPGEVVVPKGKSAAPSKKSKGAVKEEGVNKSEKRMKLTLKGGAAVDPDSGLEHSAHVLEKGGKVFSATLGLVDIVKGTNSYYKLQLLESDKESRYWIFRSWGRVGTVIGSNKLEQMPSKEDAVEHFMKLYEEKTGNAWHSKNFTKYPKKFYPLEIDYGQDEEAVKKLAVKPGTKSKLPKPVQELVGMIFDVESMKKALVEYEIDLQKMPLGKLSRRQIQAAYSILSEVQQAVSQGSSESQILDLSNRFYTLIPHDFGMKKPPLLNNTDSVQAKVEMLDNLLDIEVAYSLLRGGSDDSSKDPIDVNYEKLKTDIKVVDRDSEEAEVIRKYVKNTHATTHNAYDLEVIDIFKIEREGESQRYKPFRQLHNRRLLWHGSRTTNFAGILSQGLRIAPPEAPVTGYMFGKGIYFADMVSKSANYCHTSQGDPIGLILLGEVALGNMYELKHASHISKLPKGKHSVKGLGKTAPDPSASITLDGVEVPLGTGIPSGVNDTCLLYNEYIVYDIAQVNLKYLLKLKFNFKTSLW

In the case of `NC(=O)c1cccnc1` [nicotinamide], in assay [1], the IC50 worked out at 250 µM. Moreover, in the assay on HGF gene, the “HGF gene expression (RT-PCR), PARP inhibitor added to IL-6/dexamethasone” value is “further enhanced HGF gene expression”. Moreover, the “transcriptional activity of HGF gene (luciferase), nicotinamide added to IL-6/dexamethasone” value in assay [2] was “further enhanced this transcriptional induction”. In the assay with 90% depancreatized rats, the “development of diabetes after 90% pancreatectomy” value was “preventing the development of diabetes”.
